Assay results from PubChem BioAssay AID330 (DTP/NCI, 2004).
“And” between values parts separate entries of the source, which are not always exact repeats. Equal entries are not always repeated. Toxic doses and inconclusive results are not listed.

Tested on: P388 leukemia ip, CD2F1 mice, survival T/C
Assay: NCI In Vivo Anticancer Drug Screen. Data for tumor model P388 Leukemia (intraperitoneal) in CD2F1 (CDF1) mice
Settings: endpoint: median survival time, higher = longer survival
Summary of the method: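 Mice carrying the transplanted tumor received test compound or vehicle. Survival was recorded in each group, and the value is the treated-group measurement divided by that of the vehicle-treated control group.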

[1] = dose: 100.0 mg/kg/injection, schedule: Q01DX009 (ip), vehicle: saline with Tween-80
[2] = dose: 200.0 mg/kg/injection, schedule: Q01DX009 (ip), vehicle: saline with Tween-80
[3] = dose: 50.0 mg/kg/injection, schedule: Q01DX005 (ip), vehicle: Klucel (hydroxypropylcellulose) (HPC)
[4] = dose: 100.0 mg/kg/injection, schedule: Q01DX005 (ip), vehicle: Klucel (hydroxypropylcellulose) (HPC)
[5] = dose: 200.0 mg/kg/injection, schedule: Q01DX005 (ip), vehicle: Klucel (hydroxypropylcellulose) (HPC)
[6] = dose: 60.0 mg/kg/injection, schedule: Q01DX005 (ip), vehicle: saline with Tween-80
[7] = dose: 120.0 mg/kg/injection, schedule: Q01DX005 (ip), vehicle: saline with Tween-80
[8] = dose: 240.0 mg/kg/injection, schedule: Q01DX005 (ip), vehicle: saline with Tween-80
[9] = dose: 50.0 mg/kg/injection, schedule: Q01DX005 (ip), vehicle: saline with Tween-80
[10] = dose: 200.0 mg/kg/injection, schedule: Q01DX005 (ip), vehicle: saline with Tween-80

Structure (SMILES): CCN(CC)C1C(Br)c2ccccc2C(OC)N1C#N (configuration not stated)
- T/C (dose: 50.0 mg/kg/injection, schedule: Q01DX005 (ip), vehicle: distilled water + Tween-80 + alcohol): 103 % of control
- T/C (dose: 100.0 mg/kg/injection, schedule: Q01DX005 (ip), vehicle: distilled water + Tween-80 + alcohol): 107 % of control

Structure (SMILES): Cc1cc(Cl)nc(Cl)c1C#N
- T/C (dose: 18.75 mg/kg/injection, schedule: Q04DX003 (ip), vehicle: saline): 98 % of control
- T/C (dose: 37.5 mg/kg/injection, schedule: Q04DX003 (ip), vehicle: saline): 103 % of control
- T/C (dose: 75.0 mg/kg/injection, schedule: Q04DX003 (ip), vehicle: saline): 103 % of control
- T/C (dose: 150.0 mg/kg/injection, schedule: Q04DX003 (ip), vehicle: saline): 99 % of control

Structure (SMILES): CO[C@@H]1[C@H](O)CC[C@]2(CO2)[C@H]1[C@@]1(C)O[C@@H]1CC=C(C)C
- T/C (dose: 3.13 mg/kg/injection, schedule: Q01DX009 (ip), vehicle: saline with Tween-80): 99 % of control and 120 % of control
- T/C (dose: 6.25 mg/kg/injection, schedule: Q01DX009 (ip), vehicle: saline with Tween-80): 99 % of control and 116 % of control
- T/C (dose: 12.5 mg/kg/injection, schedule: Q01DX009 (ip), vehicle: saline with Tween-80): 99 % of control and 106 % of control
- T/C (dose: 25.0 mg/kg/injection, schedule: Q01DX009 (ip), vehicle: saline with Tween-80): 108 % of control and 120 % of control
- T/C (dose: 33.3 mg/kg/injection, schedule: Q01DX009 (ip), vehicle: saline with Tween-80): 99 % of control

Structure (SMILES): Cc1cccn2c([N+](=O)[O-])cnc12
- T/C (dose: 50.0 mg/kg/injection, schedule: Q01DX009 (ip), vehicle: saline with Tween-80): 102 % of control
- T/C [1]: 120 % of control
- T/C [2]: 113 % of control

Structure (SMILES): COc1cc2ccc(/C(C)=N/OC(C)=O)cc2cc1OC
- T/C [1]: 95 % of control
- T/C [2]: 90 % of control
- T/C (dose: 400.0 mg/kg/injection, schedule: Q01DX009 (ip), vehicle: saline with Tween-80): 90 % of control

Structure (SMILES): COc1cc(NCCCCCCNC(C)C)c2ncccc2c1OC
- T/C (dose: 1.56 mg/kg/injection, schedule: Q01DX005 (ip), vehicle: Klucel (hydroxypropylcellulose) (HPC)): 99 % of control
- T/C (dose: 3.12 mg/kg/injection, schedule: Q01DX005 (ip), vehicle: Klucel (hydroxypropylcellulose) (HPC)): 105 % of control
- T/C (dose: 6.25 mg/kg/injection, schedule: Q01DX005 (ip), vehicle: Klucel (hydroxypropylcellulose) (HPC)): 105 % of control
- T/C (dose: 12.5 mg/kg/injection, schedule: Q01DX005 (ip), vehicle: Klucel (hydroxypropylcellulose) (HPC)): 105 % of control

Structure (SMILES): CCOC(=O)c1c(C)[nH]oc1=O
- T/C (dose: 25.0 mg/kg/injection, schedule: Q01DX009 (ip), vehicle: saline sonified): 109 % of control
- T/C (dose: 50.0 mg/kg/injection, schedule: Q01DX009 (ip), vehicle: saline sonified): 100 % of control
- T/C (dose: 100.0 mg/kg/injection, schedule: Q01DX009 (ip), vehicle: saline sonified): 100 % of control

Structure (SMILES): ONC(=Nc1ccc2ccccc2c1)C(=Nc1ccc2ccccc2c1)NO
- T/C [3]: 95 % of control
- T/C [4]: 90 % of control
- T/C [5]: 94 % of control

Structure (SMILES): COC(=O)C(C(=O)OC)=S1C(Cl)=CC=C1Cl
- T/C (dose: 100.0 mg/kg/injection, schedule: Q04DX003 (ip), vehicle: saline): 108 % of control
- T/C (dose: 200.0 mg/kg/injection, schedule: Q04DX003 (ip), vehicle: saline): 104 % of control
- T/C (dose: 400.0 mg/kg/injection, schedule: Q04DX003 (ip), vehicle: saline): 106 % of control

Structure (SMILES): C(=N\Nc1ccccn1)/c1ccccn1.C(=N\Nc1ccccn1)/c1ccccn1.[Cl-].[Fe+3]
- T/C (dose: 100.0 mg/kg/injection, schedule: Q01DX001 (ip), vehicle: saline with Tween-80): 100 % of control
- T/C (dose: 200.0 mg/kg/injection, schedule: Q01DX001 (ip), vehicle: saline with Tween-80): 89 % of control

Structure (SMILES): O=C(CCN1C(=O)c2ccccc2C1=O)c1cnc[nH]1
- T/C (dose: 17.5 mg/kg/injection, schedule: Q01DX005 (ip), vehicle: Klucel (hydroxypropylcellulose) (HPC)): 105 % of control
- T/C (dose: 35.0 mg/kg/injection, schedule: Q01DX005 (ip), vehicle: Klucel (hydroxypropylcellulose) (HPC)): 90 % of control
- T/C (dose: 70.0 mg/kg/injection, schedule: Q01DX005 (ip), vehicle: Klucel (hydroxypropylcellulose) (HPC)): 98 % of control

Structure (SMILES): CCC(Cl)C#N (configuration not stated)
- T/C (dose: 7.5 mg/kg/injection, schedule: Q01DX005 (ip), vehicle: saline with Tween-80): 106 % of control
- T/C (dose: 15.0 mg/kg/injection, schedule: Q01DX005 (ip), vehicle: saline with Tween-80): 100 % of control

Structure (SMILES): C=CCN(CCNc1cccc2ccccc12)C1CCCCC1
- T/C [3]: 92 % of control
- T/C [4]: 100 % of control
- T/C [5]: 104 % of control

Structure (SMILES): O=C1NC(=O)C(CCO)(c2ccccc2)C(=O)N1
- T/C [6]: 88 % of control
- T/C [7]: 105 % of control
- T/C [8]: 100 % of control

Structure (SMILES): O=C1CN(c2cccc(Cl)c2)C(=O)CN1/N=C/c1cccnc1
- T/C (dose: 25.0 mg/kg/injection, schedule: Q01DX005 (ip), vehicle: saline with Tween-80): 96 % of control
- T/C [9]: 87 % of control and 91 % of control
- T/C [10]: 87 % of control

Structure (SMILES): CN(C)CCCN1CC2CC=CCC2C1 (configuration not stated)
- T/C (dose: 50.0 mg/kg/injection, schedule: Q01DX005 (ip), vehicle: saline): 99 % of control
- T/C (dose: 100.0 mg/kg/injection, schedule: Q01DX005 (ip), vehicle: saline): 99 % of control
- T/C (dose: 200.0 mg/kg/injection, schedule: Q01DX005 (ip), vehicle: saline): 100 % of control

Structure (SMILES): CCCCCCCC(=O)OCC(=O)[C@]1(O)Cc2c(O)c3c(c(O)c2[C@@H](OC2CC(N)C(O)C(C)O2)C1)C(=O)c1c(OC)cccc1C3=O (some centres not stated)
- T/C (dose: 0.5 mg/kg/injection, schedule: Q01DX009 (ip), vehicle: saline sonified): 159 % of control
- T/C (dose: 0.5 mg/kg/injection, schedule: Q01DX009 (ip), vehicle: saline with Tween-80): 178 % of control
- T/C (dose: 0.5 mg/kg/injection, schedule: Q01DX009 (ip), vehicle: water): 158 % of control
- T/C (dose: 1.0 mg/kg/injection, schedule: Q01DX009 (ip), vehicle: saline sonified): 190 % of control
- T/C (dose: 1.0 mg/kg/injection, schedule: Q01DX009 (ip), vehicle: saline with Tween-80): 185 % of control
- T/C (dose: 1.0 mg/kg/injection, schedule: Q01DX009 (ip), vehicle: water): 181 % of control
- T/C (dose: 1.73 mg/kg/injection, schedule: Q04DX003 (ip), vehicle: water): 172 % of control
- T/C (dose: 2.0 mg/kg/injection, schedule: Q01DX009 (ip), vehicle: saline sonified): 231 % of control
- T/C (dose: 2.0 mg/kg/injection, schedule: Q01DX009 (ip), vehicle: water): 247 % of control
- T/C (dose: 2.88 mg/kg/injection, schedule: Q04DX003 (ip), vehicle: water): 198 % of control
- T/C (dose: 4.0 mg/kg/injection, schedule: Q01DX009 (ip), vehicle: saline with Tween-80): 209 % of control and 92 % of control
- T/C (dose: 4.0 mg/kg/injection, schedule: Q01DX009 (ip), vehicle: water): 104 % of control
- T/C (dose: 4.8 mg/kg/injection, schedule: Q04DX003 (ip), vehicle: water): 202 % of control
- T/C (dose: 8.0 mg/kg/injection, schedule: Q01DX009 (ip), vehicle: saline with Tween-80): 114 % of control
- T/C (dose: 8.0 mg/kg/injection, schedule: Q04DX003 (ip), vehicle: water): 190 % of control
- T/C (dose: 13.3 mg/kg/injection, schedule: Q04DX003 (ip), vehicle: water): 111 % of control

Structure (SMILES): CC1C(=O)C23CCC4C5(C)CCCC4(CN4CCOC45)C2CCC1C3 (configuration not stated)
- T/C (dose: 1.0 mg/kg/injection, schedule: Q01DX009 (ip), vehicle: Klucel (hydroxypropylcellulose) (HPC)): 97 % of control
- T/C (dose: 2.0 mg/kg/injection, schedule: Q01DX009 (ip), vehicle: Klucel (hydroxypropylcellulose) (HPC)): 95 % of control
- T/C (dose: 4.0 mg/kg/injection, schedule: Q01DX009 (ip), vehicle: Klucel (hydroxypropylcellulose) (HPC)): 98 % of control
- T/C (dose: 8.0 mg/kg/injection, schedule: Q01DX009 (ip), vehicle: Klucel (hydroxypropylcellulose) (HPC)): 103 % of control

Structure (SMILES): CCOC(=O)c1csc(/C=C/c2cc(OC)c(OC)c(OC)c2)n1
- T/C [6]: 105 % of control
- T/C [7]: 100 % of control
- T/C [8]: 92 % of control

Structure (SMILES): CCc1ccc(/C=C/C(=O)C(C)CN(C)C)cc1 (configuration not stated)
- T/C (dose: 60.0 mg/kg/injection, schedule: Q01DX005 (ip), vehicle: saline): 105 % of control
- T/C (dose: 120.0 mg/kg/injection, schedule: Q01DX005 (ip), vehicle: saline): 118 % of control

Structure (SMILES): CCn1c2ccc([N+](=O)[O-])cc2c2c([N+](=O)[O-])c(NC=O)ccc21
- T/C [9]: 90 % of control
- T/C (dose: 100.0 mg/kg/injection, schedule: Q01DX005 (ip), vehicle: saline with Tween-80): 95 % of control
- T/C [10]: 86 % of control
